Laboratory results reported in the supplement of paper PMC10307832.

What was measured:
Assay in all cases: relative viability (nuclei count vs DMSO), 5 days (fraction); higher = more cells survive
XMD13-2 + Phenformin = compound: C1CC1C(=O)NC2=NNC3=C2C=CC(=C3)C4=CC(=CC=C4)C(=O)NC5CC5 [XMD13-2] + N=C(N)NC(=N)NCCc1ccccc1 [Phenformin] (partner 250 µM)
How it was run: (§1)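 For relative viability, nuclei counts in treated wells were divided by those in vehicle wells. Lung cancer cell lines had been pin-tool dosed in 1536-well plates the day after seeding and cultured for 5 days, then fixed and stained in one step (final 0.05% Triton X-100, 1% formaldehyde, 1 ug/ml Hoechst) and imaged at 4×. Doses were one drug alone or a fixed anchor-drug dose plus five library-drug doses (not always all listed) in √10 steps, and values are duplicate-plate medians.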

ALW-II-49-7 + Bortezomib = compound: Cc1ccc(C(=O)Nc2cccc(C(F)(F)F)c2)cc1Nc1cncc(C(N)=O)c1 [ALW-II-49-7] + CC(C)C[C@H](NC(=O)[C@H](Cc1ccccc1)NC(=O)c1cnccn1)B(O)O [Bortezomib] (partner 0.002 µM)
How it was run: as §1

ALW-II-49-7 + Luminespib = compound: Cc1ccc(C(=O)Nc2cccc(C(F)(F)F)c2)cc1Nc1cncc(C(N)=O)c1 [ALW-II-49-7] + CCNC(=O)c1noc(-c2cc(C(C)C)c(O)cc2O)c1-c1ccc(CN2CCOCC2)cc1 [Luminespib] (partner 0.01 µM)
How it was run: as §1

Dasatinib + Decitabine = compound: Cc1nc(Nc2ncc(C(=O)Nc3c(C)cccc3Cl)s2)cc(N2CCN(CCO)CC2)n1 [Dasatinib] + Nc1ncn([C@H]2C[C@H](O)[C@@H](CO)O2)c(=O)n1 [Decitabine] (partner 2 µM)
How it was run: as §1

Cell Line	relative viability (XMD13-2 + Phenformin; first compound 0.05 µM)	relative viability (XMD13-2 + Phenformin; first compound 0.1581 µM)	relative viability (XMD13-2 + Phenformin; first compound 0.5 µM)	relative viability (XMD13-2 + Phenformin; first compound 1.581 µM)	relative viability (XMD13-2 + Phenformin; first compound 5 µM)	relative viability (ALW-II-49-7 + Bortezomib; first compound 0.08 µM)	relative viability (ALW-II-49-7 + Bortezomib; first compound 0.253 µM)	relative viability (ALW-II-49-7 + Bortezomib; first compound 0.8 µM)	relative viability (ALW-II-49-7 + Bortezomib; first compound 2.53 µM)	relative viability (ALW-II-49-7 + Bortezomib; first compound 8 µM)	relative viability (ALW-II-49-7 + Luminespib; first compound 0.08 µM)	relative viability (ALW-II-49-7 + Luminespib; first compound 0.253 µM)	relative viability (ALW-II-49-7 + Luminespib; first compound 0.8 µM)	relative viability (ALW-II-49-7 + Luminespib; first compound 2.53 µM)	relative viability (ALW-II-49-7 + Luminespib; first compound 8 µM)	relative viability (Dasatinib + Decitabine; first compound 0.005 µM)	relative viability (Dasatinib + Decitabine; first compound 0.01581 µM)	relative viability (Dasatinib + Decitabine; first compound 0.05 µM)	relative viability (Dasatinib + Decitabine; first compound 0.1581 µM)	relative viability (Dasatinib + Decitabine; first compound 0.5 µM)
NCI-H2023	0.561	0.434	0.399	0.428	0.426	1.05	0.889	1	0.942	0.666	0.524	0.754	0.919	0.682	0.476	0.262	0.226	0.216	0.214	0.209
NCI-H2085	0.825	0.715	0.759	0.661	0.802	0.989	1	1.13	1.16	0.969	0.405	0.465	0.445	0.4	0.44	0.616	0.424	0.385	0.264	0.25
NCI-H2087	0.479	0.487	0.515	0.498	0.362	0.759	0.959	0.824	0.846	0.857	0.142	0.166	0.197	0.171	0.171	0.301	0.336	0.259	0.145	0.113
NCI-H2126	0.531	0.474	0.522	0.522	0.553	1.09	1.17	1.2	1.08	1.17	0.938	0.932	0.855	0.803	0.868	0.567	0.51	0.553	0.437	0.351
NCI-H2347	0.615	0.507	0.404	0.26	0.51	0.539	1.28	1.08	0.23	0.566	0.241	0.483	0.363	0.324	0.512	0.562	0.538	0.459	0.322	0.265
NCI-H2405	0.436	0.417	0.411	0.397	0.438	1.05	0.886	1.09	0.954	0.89	0.788	0.598	0.646	0.474	0.459	0.693	0.489	0.45	0.293	0.219
NCI-H3122	0.612	0.37	0.4	0.374	0.353	1.09	1.06	1.11	1.08	1.11	0.0922	0.0773	0.124	0.102	0.195	0.503	0.476	0.536	0.428	0.33
PC-3 [JPC-3]	0.5	0.49	0.48	0.523	0.54	0.746	0.777	0.758	0.862	0.825	0.669	0.698	0.636	0.548	0.772	0.799	0.802	0.81	0.755	0.623
PC-14	0.635	0.794	0.556	0.478	0.838	0.88	0.872	0.83	0.758	0.857	0.191	0.161	0.119		0.125	0.301	0.258	0.215	0.186	0.0693
RERF-LC-KJ	0.5	0.435	0.446	0.407	0.396	0.861	1.36	1.06	0.813	1.14	1.56	1.18	1.68	1.39	1.15	0.701	0.621	0.552	0.629	0.627
SK-LU-1	0.609	0.528	0.594	0.592	0.525	0.741	1.25	1.17	1.06	0.662	0.184	0.221	0.21	0.192	0.157	0.609	0.449	0.437	0.282	0.24
SW 1573	0.443	0.385	0.384	0.26	0.24	1.01	0.983	1.14	1.01	0.959	0.29	0.223	0.251	0.289	0.144	0.431	0.428	0.381	0.288	0.405
